Columns and labels:
[1] = system: ANBL-6 multiple myeloma cells; test: CellTiter-Glo cell viability assay, ANBL-6; format: cell-based; settings: for anti-proliferative activity over a concentration series: 5, 10, 12.5, 15, 20 and 30 μM or 5, 10 and 20 μM
[2] = system: TLR4; test: Whole blood assay, LPS stimulation; format: cell-based, human
Text: […] Results are for at least 6 donors. The Wilcoxon matched-pairs signed rank test was used for statistical analysis between 2 groups in Prizm 8.2.1. In each graph, circles indicate whole blood pre-treated with water, squares indicate blood pre-treated with control peptide (average for treatment with Pen and C3-Pen), and triangles indicate pre-treatment with P7-Pen.
To evaluate the effect of peptides in an ex vivo system, a human whole blood model was used. Peripheral venous blood was drawn from 6 healthy donors into sterile polypropylene tubes (Thermo Scientific™ Nunc™ Biobanking and Cell Culture Cryogenic Tubes) containing the anti-coagulant Lepirudin (Refludan®; Celgene). […] Peptide solution or DPBS was distributed in equal volume (50 μL) to 1.8 mL sterile polypropylene tubes (Thermo Scientific™Nunc™ Biobanking and Cell Culture Cryogenic Tubes). […] Stimulation solutions were made by diluting K12 LPS or CL075 in DPBS to obtain a final concentration in whole blood of 100 ng/mL (LPS) or 1 μg/mL (CL075) after addition of 50 μL stimulation solution or DPBS. […] Tubes were incubated at 37° C. under constant rotation for 4 h. Finally, plasma was isolated from the whole blood specimens by centrifugation, collected in 96 well plates (Corning® 96 Well CellBIND® Microplates), and stored at −20/−80° C. until analysis by multiplex/27-plex cytokine assay or IFNβ ELISA (VeriKine-HS Human Interferon Beta Serum ELISA Kit; pbl Assay Science).

| Substance | effect on proliferation of ANBL-6 cells ([1]; 15 μM) | anti-proliferative activity over a concentration series ([1]; 48 h) | cell proliferation ([1]; ANBL-6, 10 μM, 48 h) | cytotoxic activity (cell numbers below number seeded) ([1]; higher concentrations, 48 h) | TLR4-mediated IFNβ release by whole blood cells ([2]; 20 μM, LPS 100 ng/ml 4 h) | LPS/TLR4-induced TNF, IL-6 and IL-1β secretion ([2]; 20 μM, compared to control peptides) | LPS-mediated IFNβ secretion by whole blood cells ([2]; pilot assay, 10 μM, LPS 100 ng/ml) |
| --- | --- | --- | --- | --- | --- | --- | --- |
| Ac-ITVAASVTLTGRQIKIWFQNRRMKWKK-NH2 [Peptide P7-A4-Pen] | anti-proliferative effect | clear concentration-dependent effect | strongly inhibited cell proliferation | cytotoxic activity | – | – | – |
| Ac-ITVYASVTLTGRQIKIWFQNRRMKWKK-NH2 [Peptide P7-Pen] | – | essentially no anti-proliferative effect | – | – | effectively abrogated | significant reduction | – |
| Ac-ITVYASVTLTGRRRRRRRRRRR-NH2 [Peptide P7-Arg11] | – | – | – | – | – | – | inhibited |

Reference: US20230220047A1, “PEPTIDES FOR TREATMENT OF SEPSIS AND CANCER” (NORWEGIAN UNIVERSITY OF SCIENCE AND TECHNOLOGY (NTNU), priority 2020, published 2023)
